The values that follow are results of earlier work, collected in PMC3171802 (Chemistry & biology, 2011).

This series has as its system Ba/F3 cells transformed to IL-3 independence by overexpression of PIM1 or PIM2. As to conditions: ref Pogacic et al., 2007.

With `CC(=O)c1cccc(-c2cnc3ccc(NCC4CC4)nn23)c1` [Compound K00135], the “survival of Ba/F3 cells transformed by PIM1 or PIM2” value is given as “significantly impaired survival”.
